Broadly, the IC50 is the midpoint of a concentration-inhibition curve. A higher IC50 goes with a need for much substance. Usually melting point stands for the temperature of the solid-liquid transition.

≈ marks a conversion by molar mass, not a printed value. Where a SMILES comes first, the peptide text is derived from it. [ ]: non-standard residue; d: D form. The star is where a group is joined. Phe(4-NO2) = N[C@@H](Cc1ccc([N+](=O)[O-])cc1)C(=O)O; Phe(4-NH2) = Nc1ccc(C[C@H](N)C(=O)O)cc1; Propionyl = CCC(=O)*; Bz = O=C(c1ccccc1)*

For one data set, the system named is 2.2.15 cells. Description: Cytotoxicity (TC50, median toxic concentration) in 2.2.15 cells. The format is cell-based. How it is done: (§1) Cell control wells were simultaneously set up. […] IC50 and SI were calculated, respectively.
Another data set deals with HBV DNA replication. Description: In vitro anti-HBV: inhibition of HBV DNA replication in 2.2.15 cells (dot blot). The settings on record: day 8, dot blot; for IC50: Hepatitis B virus, 192 h. It counts as cell-based, hepatitis B virus. How it is done: as §1

The molecule `O=C(N[C@@H](Cc1ccccc1)C(=O)N[C@H](CO)Cc1ccccc1)c1ccc(Cl)cc1` [Example 07, N-(N-4-chloro-benzoyl-L-phenylalanyl)-L-phenylalaninol] came in with a melting point of 211.5 to 214 °C. The molecule further displayed a TC50 with 2.2.15 cells of 28.74 µg/mL (≈ 65.8 µM). In the data set on HBV DNA replication, the concentration for half-maximal inhibition (IC50) amounted to 1.02 µg/mL (≈ 2.33 µM).
`O=C(N[C@@H](Cc1ccc(O)cc1)C(=O)N[C@H](CO)Cc1ccccc1)c1ccc(Cl)cc1` [Example 19, N-(N-4-chloro-benzoyl-L-tyrosyl)-L-phenylalaninol] displayed a TC50 with 2.2.15 cells of 587.06 µg/mL (≈ 1300 µM). This molecule also registered an IC50 with HBV DNA replication of 103 µg/mL (≈ 228 µM).
As to `COC(=O)[C@H](Cc1ccc(O)cc1)NC(=O)[C@H](Cc1ccccc1)NC(=O)c1ccccc1` [Example 04, methyl N-(N-benzoyl-L-phenylalanyl)-L-tyrosinate] (Bz-Phe-Tyr-OMe), the melting point lay within 184 to 186 °C. The same molecule registered a TC50 in the data set with 2.2.15 cells of 450.67 µg/mL (≈ 1010 µM). The concentration for half-maximal inhibition (IC50) with HBV DNA replication is 51.8 µg/mL (≈ 116 µM).
For `COC(=O)[C@H](Cc1ccccc1)NC(=O)[C@H](Cc1ccccc1)NC(=O)c1ccc(OCCN(C)C)cc1` [Example 78, methyl N-[N-4-(2-dimethylamino-ethoxyl)-benzoyl-L-phenylalanyl]-L-phenylalaninate], the TC50 in the data set with 2.2.15 cells was 257.31 µg/mL (≈ 497 µM). The “Inhibition of DNA Replication IC50” value with HBV DNA replication was found to be 54.28 µg/mL.
In the data set on 2.2.15 cells, `COC(=O)[C@H](Cc1ccccc1)NC(=O)[C@H](Cc1ccccc1)NC(=O)c1ccc(F)cc1` [Example 03, methyl N-(N-4-fluoro-benzoyl-L-phenylalanyl)-L-phenylalaninate] gave a TC50 of 17.81 µg/mL (≈ 39.7 µM). This molecule showed an IC50 in the data set with HBV DNA replication of 0.63 µg/mL (≈ 1.4 µM).
For the molecule `O=C(O)CCC(=O)Nc1ccc(C[C@H](NC(=O)c2ccccc2)C(=O)N[C@H](CO)Cc2ccccc2)cc1` [Example 83, N-[N-benzoyl-4-(3-carboxyl-propionamido)-L-phenylalanyl]-L-phenylalaninol], in the data set on 2.2.15 cells, the TC50 was greater than 1000 µg/mL. The IC50 in the data set on HBV DNA replication stood at 253 µg/mL (≈ 488 µM).
With `O=C(N[C@@H](Cc1ccc([N+](=O)[O-])cc1)C(=O)N[C@@H](Cc1ccccc1)C(=O)O)c1ccccc1` [Example 88, N-(N-benzoyl-4-nitro-L-phenylalanyl)-L-phenylalanine] (Bz-[Phe(4-NO2)]-Phe-OH), in the data set with 2.2.15 cells, the TC50 stood at 388.03 µg/mL (≈ 841 µM). Half-maximal inhibition with HBV DNA replication (IC50) was put at 25 µg/mL (≈ 54.2 µM).
With `COC(=O)[C@H](Cc1ccccc1)NC(=O)[C@H](Cc1ccc(O)cc1)NC(=O)c1ccc(F)cc1` [Example 25, methyl N-(N-4-fluoro-benzoyl-L-tyrosyl)-L-phenylalaninate], the melting point lay within 186.5 to 189 °C. This molecule displayed a TC50 with 2.2.15 cells of 574.76 µg/mL (≈ 1240 µM). The molecule further registered a half-inhibitory concentration (IC50) in the data set on HBV DNA replication of 68.7 µg/mL (≈ 148 µM).
For the molecule `COc1ccc(C[C@H](NC(=O)[C@H](Cc2ccccc2)NC(=O)c2ccccc2)C(=O)[O-])cc1.[Na+]` [Example 79, N-(N-benzoyl-L-phenylalanyl)-O-methyl-L-tyrosine sodium salt] (Bz-Phe-Tyr(Me)-OH), the TC50 in the data set on 2.2.15 cells is 86.23 µg/mL. This molecule also came in with an IC50 with HBV DNA replication of 9.59 µg/mL.
As to `COC(=O)[C@H](Cc1ccc(OC)cc1)NC(=O)[C@H](Cc1ccccc1)NC(=O)c1ccccc1` [Example 71, methyl N-(N-benzoyl-L-phenylalanyl)-O-methyl-L-tyrosinate] (Bz-Phe-Tyr(Me)-OMe), the TC50 in the data set on 2.2.15 cells amounted to 388.03 µg/mL (≈ 843 µM). Further, in the data set with HBV DNA replication, inhibition was half-maximal at 6.62 µg/mL (≈ 14.4 µM) (IC50).
In the data set with 2.2.15 cells, `CN(C)c1ccc(C[C@H](NC(=O)c2ccccc2)C(=O)N[C@H](CO)Cc2ccccc2)cc1` [Example 84, N-(N-benzoyl-4-dimethylamino-L-phenylalanyl)-L-phenylalaninol] returned a TC50 of 86.23 µg/mL (≈ 194 µM). This molecule also displayed a half-maximal inhibitory concentration (IC50) in the data set with HBV DNA replication of 1.44 µg/mL (≈ 3.23 µM).
In turn, `COC(=O)[C@H](Cc1ccccc1)NC(=O)[C@H](Cc1ccc(OC(C)=O)c(NC(C)=O)c1)NC(=O)c1ccccc1` [Example 63, methyl N-(N-benzoyl-O-acetyl-3-acetamido-L-tyrosyl)-L-phenylalaninate] had a TC50 in the data set with 2.2.15 cells of 358.02 µg/mL (≈ 656 µM). Further, the IC50 in the data set on HBV DNA replication came to 53.1 µg/mL (≈ 97.4 µM).
On the same counts, the results for `CC(=O)Nc1ccc(C[C@H](NC(=O)c2ccccc2)C(=O)N[C@H](COC(C)=O)Cc2ccccc2)cc1` [Example 54, N-(N-benzoyl-4-acetamido-L-phenylalanyl)-O-acetyl-L-phenylalaninol] are 43.11 µg/mL (≈ 85.9 µM) and 0.82 µg/mL (≈ 1.63 µM).
On the same counts, the results for `CC(=O)OC[C@H](Cc1ccccc1)NC(=O)[C@H](Cc1ccccc1)NC(=O)c1ccccc1` [Example 55, N-(N-benzoyl-L-phenylalanyl)-O-acetyl-L-phenylalaninol] are 53.42 µg/mL (≈ 120 µM) and 4.96 µg/mL (≈ 11.2 µM).
`CN(C)CCOc1ccc(C(=O)N[C@@H](Cc2ccccc2)C(=O)N[C@H](CO)Cc2ccccc2)cc1` [Example 77, N-[N-4-(2-dimethylamino-ethoxyl)-benzoyl-L-phenylalanyl]-L-phenylalaninol] displayed a TC50 in the data set with 2.2.15 cells of 160.25 µg/mL (≈ 327 µM). Further, in the data set with HBV DNA replication, the “Inhibition of DNA Replication IC50” value came out at 13.51 µg/mL.
`O=C(N[C@@H](Cc1ccc(O)cc1)C(=O)N[C@H](CO)Cc1ccccc1)c1ccccc1` [Example 21, N-(N-benzoyl-L-tyrosyl)-L-phenylalaninol]: the melting point lay within 216 to 217.5 °C. Further, the TC50 with 2.2.15 cells came to 28.74 µg/mL (≈ 68.7 µM).
With `COC(=O)[C@H](Cc1ccc([N+](=O)[O-])cc1)NC(=O)[C@H](Cc1ccc([N+](=O)[O-])cc1)NC(=O)c1ccccc1` [Example 15, methyl N-(N-benzoyl-4-nitro-L-phenylalanyl)-4-nitro-L-phenylalaninate] (Bz-[Phe(4-NO2)]-[Phe(4-NO2)]-OMe), the melting point lay within 220 to 221.5 °C. In the data set with 2.2.15 cells, this molecule had a TC50 of 45.69 µg/mL (≈ 87.8 µM).
For the molecule `O=C(N[C@@H](Cc1ccccc1)C(=O)N[C@H](CO)Cc1ccc([N+](=O)[O-])cc1)c1ccccc1` [Example 16, N-(N-benzoyl-L-phenylalanyl)-4-nitro-L-phenylalaninol], the melting point fell in the range of 192 to 195 °C. Besides, in the data set with 2.2.15 cells, the TC50 turned out to be 52.34 µg/mL (≈ 117 µM).
Consider `CN(C)Cc1ccc(C(=O)N[C@@H](Cc2ccccc2)C(=O)N[C@H](CO)Cc2ccccc2)cc1` [Example 49, N-[N-(4-dimethylaminomethyl-benzoyl)-L-phenylalanyl]-L-phenylalaninol], for which the TC50 in the data set on 2.2.15 cells worked out at 86.23 µg/mL (≈ 188 µM). In the data set with HBV DNA replication, this molecule showed a 50% inhibitory concentration (IC50) of 7.28 µg/mL (≈ 15.8 µM).
On to `Cc1ccc(C(=O)N[C@@H](Cc2ccc(O)cc2)C(=O)N[C@H](CO)Cc2ccccc2)cc1` [Example 26, N-(N-4-methyl-benzoyl-L-tyrosyl)-L-phenylalaninol], for which the melting point lay within 193 to 195 °C. In the data set with 2.2.15 cells, this molecule displayed a TC50 of 472.10 µg/mL (≈ 1090 µM).
Regarding `COC(=O)[C@H](Cc1ccc(NC(C)=O)cc1)NC(=O)[C@H](Cc1ccccc1)NC(=O)c1ccccc1` [Example 59, methyl N-(N-benzoyl-L-phenylalanyl)-4-acetamido-L-phenylalaninate] (Bz-Phe-[Phe(4-NH2)](Ac)-OMe), the melting point lay within 228 to 229.5 °C. Also, the TC50 in the data set with 2.2.15 cells worked out at 258.69 µg/mL (≈ 531 µM).
The molecule `CCC(=O)Nc1ccc(C[C@H](NC(=O)[C@H](Cc2ccccc2)NC(=O)c2ccccc2)C(=O)OC)cc1` [Example 64, methyl N-(N-benzoyl-L-phenylalanyl)-4-propionamido-L-phenylalaninate] (Bz-Phe-[Phe(4-NH2)](Propionyl)-OMe) returned a melting point of 244.5 to 246 °C. This molecule also showed a TC50 in the data set with 2.2.15 cells of 58.54 µg/mL (≈ 117 µM).
In the case of `O=C(N[C@@H](Cc1ccccc1)C(=O)N[C@@H](Cc1ccccc1)C(=O)O)c1ccccc1` [Example 86, N-(N-benzoyl-L-phenylalanyl)-L-phenylalanine] (Bz-Phe-Phe-OH), the TC50 in the data set with 2.2.15 cells was determined as 130.56 µg/mL (≈ 313 µM). In the data set with HBV DNA replication, this molecule came in with an IC50 of 10.6 µg/mL (≈ 25.4 µM).

(Values after patent US9023809B2, “Phenylalanine dipeptide derivatives, compositions and use thereof” (The Key Laboratory of Chemistry For Natural Products of …, priority 2008, dated 2015).)
